Assay results published in ChEMBL document CHEMBL1130726, “Novel cytokine release inhibitors. Part III: Truncated analogs of tripterine” (Bioorg Med Chem Lett, 1998).

How the values were obtained:
Type in all cases: functional
Homo sapiens [1] = species: Homo sapiens; assay: Compound was tested for inhibitory effect on LPS-stimulated IL-1 alpha release from human monocytes
Homo sapiens [2] = species: Homo sapiens; assay: Compound was tested for inhibitory effect on LPS-stimulated PGE-2 release from human monocytes
Homo sapiens [3] = species: Homo sapiens; assay: Compound was tested for inhibitory effect on LPS-stimulated IL-6 release from human monocytes
Homo sapiens [4] = species: Homo sapiens; assay: Compound was tested for inhibitory effect on LPS-stimulated TNF-alpha release from human monocytes
Homo sapiens [5] = species: Homo sapiens; assay: Compound was tested for inhibitory effect on LPS-stimulated IL-1 beta release from human monocytes
Homo sapiens [6] = species: Homo sapiens; assay: Inhibitory activity against LPS-stimulated IL-1 beta release from human monocytes
Homo sapiens [7] = species: Homo sapiens; assay: Compound was tested for inhibitory effect on LPS-stimulated IL-8 release from human monocytes
Homo sapiens [8] = species: Homo sapiens; assay: Compound was tested for inhibitory activity against LPS-stimulated IL-1 beta release from human monocytes at concentration 3000 nM
Homo sapiens [9] = species: Homo sapiens; assay: Compound was tested for inhibitory activity against LPS-stimulated IL-1 beta release from human monocytes; 80-700

Work on CC1=C(O)C(=O)C=C2C1=CC=C1[C@@]2(C)CC[C@@]2(C)[C@@H]3C[C@](C)(C(=O)O)CC[C@]3(C)CC[C@]12C [CELASTROL] yielded an IC50 (Homo sapiens [1]) of 0.04 µM, an IC50 (Homo sapiens [2]) of 0.11 µM and an IC50 (Homo sapiens [3]) of 0.08 µM. The IC50 (Homo sapiens [4]) was 0.21 µM, the IC50 (Homo sapiens [5]) was 0.04 µM and the IC50 (Homo sapiens [6]) was 0.04 µM. The IC50 (Homo sapiens [7]) was 0.21 µM.
In the case of CC(=O)Oc1cc2c(cc1OC(C)=O)[C@]1(C)CCC(=O)[C@](C)(Cc3ccc(C(=O)O)cc3)[C@H]1CC2, the inhibition at 3 µM (Homo sapiens [8]) is reported as 16%.
COc1cc2c(c(C)c1OC)C=CC1=C(C)C(=O)CCC12C (stereo not drawn) was tested, and the IC50 (Homo sapiens [1]) was 0.13 µM, the IC50 (Homo sapiens [2]) was 0.45 µM and the IC50 (Homo sapiens [3]) was 0.34 µM. For the same molecule, the IC50 (Homo sapiens [4]) was 0.19 µM and the IC50 (Homo sapiens [7]) was 0.48 µM.
Work on CC(=O)Oc1cc2c(c(C)c1OC(C)=O)CC=C1C(C)(C)C(=O)CC[C@]12C yielded an IC50 (Homo sapiens [6]) of 0.2 µM.
CCOC(=O)C[C@@]1(C)C(=O)CC[C@@]2(C)c3cc(OC(C)=O)c(OC(C)=O)cc3CC[C@H]12 showed an IC50 (Homo sapiens [6]) of 2.2 µM.
For CC1=C(O)C(=O)C=C2C1=CC=C1C(C)(C)C(=O)CCC21C (stereo not drawn), the IC50 (Homo sapiens [9]) was 0.08 µM.
Molecule CC(=O)Oc1cc2c(c(C)c1OC(C)=O)CCC1=C(C)C(=O)CCC12C (stereo not drawn) has an IC50 (Homo sapiens [1]) of 0.1 µM, an IC50 (Homo sapiens [2]) of 0.2 µM and an IC50 (Homo sapiens [3]) of 0.25 µM. For the same molecule, the IC50 (Homo sapiens [4]) was 0.19 µM, the IC50 (Homo sapiens [5]) was 0.08 µM and the IC50 (Homo sapiens [6]) was 2.4 µM. It also gave an IC50 (Homo sapiens [7]) of 0.3 µM.
For CC(=O)Oc1cc2c(c(C)c1OC(C)=O)CC=C1[C@@]2(C)CC[C@H]2OC(=O)C[C@]12C, the IC50 (Homo sapiens [6]) was 0.2 µM.
CC(=O)Oc1cc2c(c(C)c1OC(C)=O)CC=C1[C@@]3(C)CCC(=O)C(C)=C3CC[C@]12C was tested, and the IC50 (Homo sapiens [6]) was 0.08 µM.
For Cc1c(O)c(O)cc2c1CC=C1C(C)(C)C(=O)CCC12C (stereo not drawn), the IC50 (Homo sapiens [6]) was 0.3 µM.
COc1cc2c(c(C)c1OC)CCC(=O)C2C (stereo not drawn) was tested, and the IC50 (Homo sapiens [1]) was 0.24 µM, the IC50 (Homo sapiens [2]) was 0.52 µM and the IC50 (Homo sapiens [3]) was 0.43 µM. It also gave an IC50 (Homo sapiens [4]) of 0.46 µM and an IC50 (Homo sapiens [7]) of 1 µM.
In the case of CC(=O)Oc1cc2c(cc1OC(C)=O)[C@]1(C)CC[C@H]3C(C)(C)C(=O)CC[C@]3(C)C1=CC2, the IC50 (Homo sapiens [6]) is reported as 0.14 µM.
With CC(=O)Oc1cc2c(c(C)c1OC(C)=O)CC=C1C(C)(C)C(=O)CCC12C (stereo not drawn) the IC50 (Homo sapiens [6]) was 0.2 µM.
CC(=O)Oc1cc2c(c(C)c1OC(C)=O)CC=C1C(C)(C)[C@H](OC(C)=O)CC[C@]12C showed an IC50 (Homo sapiens [6]) of 0.1 µM.
COc1cc2c(c(C)c1O)CC=C1C(C)(C)C(=O)CCC12C (stereo not drawn) was tested, and the IC50 (Homo sapiens [6]) was 0.7 µM.
CC(=O)Oc1cc2c(c(C)c1OC(C)=O)CC(C(C)=O)=C1[C@@]2(C)CC[C@H]2OC(=O)C[C@]12C showed an IC50 (Homo sapiens [6]) of 0.9 µM.
For CC(=O)Oc1cc2c(c(C)c1OC(C)=O)C=CC1=C(C)C(=O)CCC12C (stereo not drawn), the IC50 (Homo sapiens [1]) was 0.22 µM, the IC50 (Homo sapiens [2]) was 0.6 µM and the IC50 (Homo sapiens [3]) was 0.4 µM. The IC50 (Homo sapiens [4]) was 0.5 µM, the IC50 (Homo sapiens [5]) was 0.18 µM and the IC50 (Homo sapiens [6]) was 0.7 µM. The IC50 (Homo sapiens [7]) was 0.93 µM.
